# According to US12097203B2, “Combination therapies comprising SHP2 inhibitors and PD-1 inhibitors” (HUYABIO International, LLC, priority 2021, dated 2024):
# Tested on: MC38 tumor
# Experiment: Cytokine detection assay (V-Plex Proinflammatory Panel 1 Mouse Kit) in MC38 tumor bearing animals
# Format: in vivo, mice
# Conditions: MC38 tumor model, plasma from tumor bearing animals 2 hours post last dose
# Source text: Reagents: GH21001 (TNO-155), GH21005 (compound of Formula Ia) were supplied by HUYA Biosciences, USA, RMC-4550 was purchased from MCE, China. Osimertinib was purchased from Selleck, China. Cisplatin was purchased from Qilu Pharma, China. Anti-PD-1 (RMP1-14) and Rat IgG2a antibodies were purchased from BioXCell (China).
# All cell lines were maintained in culture and cells in exponential growth phase were harvested and quantitated by cell counter before tumor inoculation. MC38 tumor cells (1×10^6) in 0.1 ml of PBS were inoculated into the right front flank of female C57/Bl animals, mean tumor size approximately 112 mm^3 at the start of treatment.
# The date of randomization and treatment initiation was denoted as day 0. Tumor volumes were measured twice per week in two dimensions using a caliper, and the volume will be expressed in mm3 using the formula: V=(L×W×W)/2, where V is tumor volume, L is tumor length (the longest tumor dimension) and W is tumor width (the longest tumor dimension perpendicular to L). Dosing volume was 10 mL/kg/day. […]
# Cytokine detection assay: V-Plex Proinflammatory Panel 1 Mouse Kit (Mesoscale Discovery) was used to determine cytokine levels in plasma isolated from tumor bearing animals 2 hours post last dose. Plasma from tumor bearing animals was analyzed as described by the manufacture's guidelines. […]
structure (smiles),measurement,setting,value
"C[C@@H]1OCC2(CCN(c3cnc(Sc4cccc(NC(=O)c5c(O)nc6n(c5=O)CCCC6)c4Cl)cn3)CC2)[C@@H]1N [compound of Formula (Ia), N-(3-((5-((3S,4S)-4-amino-3-methyl-2-oxa-8-azaspiro[4.5]decan-8-yl)pyrazin-2-yl)thio)-2-chlorophenyl)-2-hydroxy-4-oxo-6,7,8,9-tetrahydro-4H-pyrido[1,2-a]pyrimidine-3-carboxamide]",KC/GRO level,FIG. 2A,slight decreases
same,TNF-alpha level,FIG. 2B,slight decreases
